The subject of experiment [1] is bone marrow derived macrophages (BMDM). The experiment in a line: Flow cytometry of PSGL-1, CD206, CD38 on bone marrow derived macrophages. The format is cell-based, murine. The method, then:
Primary murine bone marrow-derived macrophages (BMDM) isolation. Bone marrow cells were freshly isolated from the tibias and the femurs of 8-12 weeks old C57BL/6 mice (Envigo CRS, Israel). Bone marrow cells were extracted using 25-gauge syringe and passed through a 70 µm nylon strainer (Corning, Israel). For macrophages differentiation cells were incubated with 50 ng/ml recombinant murine GM-CSF for one week. The medium was replaced 4 days post cells isolation. Cells were tested for CD11b and F4/80 expression using flow cytometry.
Flow cytometry. For flow cytometry assays, cells were harvested using a cell scraper, and were then washed with PBS followed by additional washes with PBS supplemented with 1% BSA and 5 mM EDTA (FACS buffer). Tumor spheroids were recovered from Matrigel using Cell Recovery Solution (Corning) and washed with FACS buffer. To validate the purity of the microglia preparations, CD11b isolated cells or human microglia were incubated with TMEM119 and P2Y12-labeled antibodies for 1 h. For human TMEM119, primary antibody was unlabeled and cells were washed and incubated with secondary, Alexa 488 conjugated antibody. To assess P-Selectin and PSGL-1 expression, GB cells and microglia were seeded alone, co-cultured in a 2D petri dish, or grown as spheroids seeded in Matrigel. Cells were treated with control medium or CM for 48 h. They were then incubated with mouse anti-human P-Selectin antibody for 1 h on ice, and then were washed, and incubated with Alexa-488 labeled anti-mouse IgG binding protein for 1 h on ice. Alternatively, cells were incubated with rat anti-human PSGL antibody, and then were washed, and incubated with goat anti-rat, Alexa-488 labeled antibody for 1 h on ice. […] Fluorescence intensity was assessed using either an Attune flow cytometer (Life Technologies) or a Gallios™ flow cytometer (Beckman Coulter, USA) and the results were analyzed by Kaluza software (Beckman Coulter, USA).
Background: In flow cytometry, cells or beads pass a laser one at a time.

The subject of the next experiment is iAGR53 tumors. In words: SELPi treatment in murine mesenchymal iAGR53 GB model. The format is in vivo, C57BL/6 mice. The conditions noted are these: iAGR53, 16 mg/kg SELPi IV QOD. Here is the method:
Tumor volume was evaluated by MRI. […] Twelve days post cell inoculation, 3 mice per group were euthanized and brain were resected and further processed for histology analysis. […] Brain cannulas (NBT) were implanted intraventricularly in the co-lateral hemisphere and the mice were treated stereotactically via the cannulas (1 µl at 0.2 µl/min flow rate) with PBS, 2 mg/kg SELPi dissolved in DMSO or vehicle (DMSO). Three weeks post cell-inoculation, the mice were euthanized, the cannulas were removed, and tumor volume was evaluated by MRI (MR solutions). Brains were resected for immunostaining.
SELPi treatments. KF 38789 (SELPi) is a commercially-available P-Selectin inhibitor manufactured by Tocris BioScience. […] This compound is commonly used for research of immune-related processes such as tumor metastases formation. For the experiment described above, SELPi (0.8 mg/ml) was dissolved in DMSO (0.01%), polyethyleneglycol (93.2 mg/ml), Tween-80 (14.8 mg/ml) and DDW. Mice were injected with 16 mg/kg IV, twice a week, three times a week or QOD as described above. As control (vehicle), mice were injected with DMSO (0.01%), polyethyleneglycol (93.2 mg/ml), Tween-80 (14.8 mg/ml), in DDW at equivalent volume.
MRI imaging. Tumor bearing mice were imaged at the Sackler Cellular & Molecular Imaging Center (SCMIC), Tel Aviv University. […]

The target of a further experiment is T1, E-Selectin (Homo sapiens, UniProt P16581).
T1 sequence (P16581 22-610): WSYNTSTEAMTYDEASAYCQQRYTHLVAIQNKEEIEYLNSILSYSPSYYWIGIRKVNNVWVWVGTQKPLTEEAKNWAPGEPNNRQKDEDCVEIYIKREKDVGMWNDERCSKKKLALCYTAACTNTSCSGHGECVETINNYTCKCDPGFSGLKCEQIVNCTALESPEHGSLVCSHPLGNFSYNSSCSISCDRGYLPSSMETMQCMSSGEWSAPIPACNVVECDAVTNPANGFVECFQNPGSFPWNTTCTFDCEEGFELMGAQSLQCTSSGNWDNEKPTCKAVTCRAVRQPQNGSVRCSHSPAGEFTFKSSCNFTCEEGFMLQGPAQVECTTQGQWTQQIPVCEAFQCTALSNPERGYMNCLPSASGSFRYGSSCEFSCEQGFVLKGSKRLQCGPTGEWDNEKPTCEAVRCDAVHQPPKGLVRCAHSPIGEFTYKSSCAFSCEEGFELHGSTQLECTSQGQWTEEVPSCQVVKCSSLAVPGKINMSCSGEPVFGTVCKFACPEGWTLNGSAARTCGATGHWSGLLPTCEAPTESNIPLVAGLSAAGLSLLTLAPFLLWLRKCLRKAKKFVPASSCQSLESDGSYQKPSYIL
The conditions noted are these: cited from earlier work.

The mark [2] stands for this setting: rSELP, or SELPi added to rSELP containing medium.

Entries after “also recorded” stand apart in the source; their conditions may differ.

Turning to `COc1ccc(C2CC(c3c(O)cc(C)oc3=O)=NCCS2)c(OC)c1` (stereo not drawn) [SELPi, 3-[7-(2,4-Dimethoxyphenyl)-2,3,6,7-tetrahydro-1,4-thiazepin-5-yl]-4-hydroxy-6-methyl-2H-pyran-2-one], the PSGL-1 expression result in experiment [1] (rSELP and GB CM, or SELPi added to GB CM) is “reduced”. Besides, in experiment [1] (setting [2]), the CD38 expression entry was “elevated” and the CD206 expression result is listed as “reduced”. Moreover, in the experiment with iAGR53 tumors, the survival result was “prolonged the survival” and the “tumor volume (MRI)” value is recorded as “significant reduction in tumor volume; also recorded: reduced tumor growth”. Further, at E-Selectin, the “inhibiting effect on E-Selectin” value was “no inhibiting effects”.

Values taken from US20230303712A1, “METHODS OF TREATING GLIOBLASTOMA” (Ramot at Tel-Aviv University Ltd., priority 2020, published 2023).
